Laboratory results as given in article PMC5578999, “Novel quinolone chalcones targeting colchicine-binding pocket kill multidrug-resistant cancer cells by inhibiting tubulin activity and MRP1 function” (Scientific Reports, 2017).
Where “and” joins values, the source holds several entries; their conditions need not be identical. Identical values can stand only once.

Key:
Type in all cases: cell-based
centrosomes = experiment: Distance between two centrosomes by fluorescence microscopy; conditions: 3.0 μmol/L CTR-17
Method: and Lee, 2008). The reversibility of drug effects was carried out as follow: He La cells treated
with CTR-17 or CTR-20 for 12 hours were w ashed twice with 1 × PBS and then releas ed into
pre-w armed complet emedium . Subsequentl y, c ell s were h arvested at scheduled time points to
ex amine their DNA profi les /cell c ycle positions by flow c ytometr y.
Immunofluorescencestai ning was car ried out as d escribed previousl y (Santi and Lee,
2011).Photograph y was carri ed out with a Carl Zeiss 510 Meta l aser s cann ing microscop e or an
Axioscope,and images were captur ed with LSM image examiner (Carl Zeiss, North York, ON,
Canada). For immunostaining , a background cont rol (without secondar y antibody) and bleed-
through controls (cells labeled with each fluorophore separatel y) were used to avoid inaccur ate
interpretation of dat a due to artifacts. A minimum of 10 fields per coverslip and 200 cells for
quantitative cell anal ysis were captur ed. Each ex periment was r epeat ed at l east twice. Western
blotting was carried out as described previousl y (Santi and Lee, 2010).
Molecular Operating Environment (MOE) (Chemi cal Computing Group Inc, Montreal, […]
The best docking pose was determined based on t he minimum free energy for binding. […]
hours or 24hours . The m itotic index was determined b y fluorescence micro scop y with counting […]

U87MG = experiment: SRB cell viability/proliferation; conditions: Homo sapiens, U-87 MG
Method: (§1) and MCF10AT1 cells were cultured in Dulbecco's Modified Eagle's Medium/Ham's Nutrient Mixture F-12 (DME/F12) supplemented with 10% (volume/volume) FBS , 100 μg/ml streptom ycin and 100 units/ml penicillin, antim ycotic solution, 0.5 μg/ml hydrocortisone, 10 ng/ml human epiderm al growth factor (hEGF) and 5 μg/ml insulin, whereas MCF10CA1a cell line was cultured in DM EM supplemented with 10% FBS (volume/volume). KB-3- 1, parental human epidermoid carcinoma cell line and KB-C2, an isogenic MDR1- overexpressing drug-resistant cell line, were kindl y provided b y Dr. Amit K Tiwari, the Universit y of Toledo, OH.
(§2) Parental HEK293 and M RP1- overexpressing HEK293- MRP1 isogenic cel ls were kind gifts of Dr. Susan Cole (Queen’s Universit y, Kingston, Ontario, Canada). The pacl itaxel-resistant MDA-MB-231TaxR cell line was generated in house b y culturing MDA-MB-231 cells (purchased from ATCC and authen ticated ) in the gradual l y incr easi ng con centr ations of pacl itax el until the concentration reached to 100 nM. Cell line authentication was carried out by Genetica DNA Laboratories (Burlington, NC) using a short tandem repeat (STR) profiling method (March 2015; […]
(§3) Cell cycl e pro gr ession in the absence (sham) o r pr esence o f compound(s ) was determined with a Beckman Coulter Epics Elite FC 500 Flow C ytom eter as described previousl y (Romero

MDA-MB-468 = experiment: SRB cell viability/proliferation; conditions: Homo sapiens
Method: as §1, §2, §3

Compound	distance between two centrosomes (centrosomes)	distance between two centrosomes shorter than sham control (centrosomes)	IC50 (U87MG)	IC50 (MDA-MB-468)
COc1ccccc1C(=O)/C=C/c1cc2ccccc2[nH]c1=O [CTR-17, (E)-3-(3-(2-Methoxyphenyl)-3-oxoprop-1-enyl)quinolin-2(1H)-one]	4.83 ± 0.36 µm	~ 35% and 35%		
COc1ccc2[nH]c(=O)c(/C=C/C(=O)c3ccccc3OC)cc2c1 [CTR-20, (E)-6-Methoxy-3-(3-(2-methoxyphenyl)-3-oxoprop-1-enyl) quinolin-2(1H)-one]			1110 nM	120 nM
